Measurements from ChEMBL document CHEMBL1157682, “In silico prediction of human carboxylesterase-1 (hCES1) metabolism combining docking analyses and MD simulations” (Bioorg Med Chem, 2010).
Values joined by “and” are separate entries in the source; they are usually repeats but may differ in a detail not shown here. Identical values can stand only once.

These compounds were tested against T1, Liver carboxylesterase 1 (Homo sapiens, UniProt P23141) (assay: Activity at human recombinant CES1 expressed in baculovirus-infected Spodoptera frugiperda Sf21 cells assessed as substrate hydrolysis by fluorescence assay).
T1 sequence (P23141 whole entry): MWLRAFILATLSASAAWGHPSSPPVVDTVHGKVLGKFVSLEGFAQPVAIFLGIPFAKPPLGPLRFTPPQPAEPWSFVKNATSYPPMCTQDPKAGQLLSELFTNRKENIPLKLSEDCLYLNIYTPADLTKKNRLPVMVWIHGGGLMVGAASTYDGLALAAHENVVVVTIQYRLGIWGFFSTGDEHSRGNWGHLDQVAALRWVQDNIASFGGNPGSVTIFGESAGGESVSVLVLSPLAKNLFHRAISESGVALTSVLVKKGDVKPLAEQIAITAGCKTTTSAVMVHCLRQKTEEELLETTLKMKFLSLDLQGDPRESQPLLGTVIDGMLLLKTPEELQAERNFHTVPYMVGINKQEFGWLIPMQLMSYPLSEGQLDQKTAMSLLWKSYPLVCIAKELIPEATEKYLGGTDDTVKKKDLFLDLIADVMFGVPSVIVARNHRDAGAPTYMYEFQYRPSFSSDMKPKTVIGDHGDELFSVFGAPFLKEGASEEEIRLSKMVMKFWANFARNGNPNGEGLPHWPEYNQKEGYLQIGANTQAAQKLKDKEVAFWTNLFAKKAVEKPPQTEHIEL

Point of comparison: N[C@@H](CC(=O)O)C(=O)OC[C@H]1O[C@@H](n2cc(F)c(=O)[nH]c2=O)C[C@@H]1O, pKm 2.52. Against it:
- COC(=O)[C@H](c1ccccc1Cl)N1CCc2sccc2C1 [CLOPIDOGREL] — higher, 4.25
- CCOC(=O)[C@H](CCc1ccccc1)N[C@@H](C)C(=O)N1C(=O)N(C)C[C@H]1C(=O)O — higher, 3.54
- COc1ccc2cc([C@H](C#N)OC(=O)[C@H]3[C@H](C=C(Cl)Cl)C3(C)C)ccc2c1 — higher, 5.72
- COc1ccc2cc([C@H](C#N)OC(=O)[C@@H]3[C@@H](C=C(Cl)Cl)C3(C)C)ccc2c1 — higher, 5.77
- CC1(C)[C@H](C=C(Cl)Cl)[C@@H]1C(=O)OCc1cccc(Oc2ccccc2)c1 — higher, 4.62
- CCc1c2c(nc3ccc(OC(=O)N4CCC(N5CCCCC5)CC4)cc13)-c1cc3c(c(=O)n1C2)COC(=O)[C@]3(O)CC [IRINOTECAN] — higher, 2.84
- CCCC(=O)Oc1ccc([N+](=O)[O-])cc1 — higher, 3.89
- CN(C)C(=O)COC(=O)Cc1ccc(OC(=O)c2ccc(NC(=N)N)cc2)cc1 [CAMOSTAT] — higher, 3.15
- CCOC(=O)[C@H](CCc1ccccc1)N[C@H]1CCc2ccccc2N(CC(=O)O)C1=O [BENAZEPRIL] — higher, 3.13
- CCOC(=O)C1(c2ccccc2)CCN(C)CC1 [MEPERIDINE] — higher, 2.72
- COc1cc(C(=O)OCCCN2CCCN(CCCOC(=O)c3cc(OC)c(OC)c(OC)c3)CC2)cc(OC)c1OC [DILAZEP] — higher, 3.81
- CC(=O)Oc1ccc2c(C)cc(=O)oc2c1 — higher, 3.1
- CC(=O)Oc1ccc2c3c1O[C@H]1[C@@H](OC(C)=O)C=C[C@H]4[C@@H](C2)N(C)CC[C@@]341 [DIACETYLMORPHINE] — lower, 2.2
- CC(C)C[C@H](N)C(=O)OC[C@H]1O[C@@H](n2cc(F)c(=O)[nH]c2=O)C[C@@H]1O — higher, 3.01
- CCOC(=O)[C@H](CCc1ccccc1)N[C@H]1CS[C@H](c2cccs2)CN(CC(=O)O)C1=O [TEMOCAPRIL] — higher, 3.1
- CCOC(=O)[C@H](CCc1ccccc1)N[C@@H](C)C(=O)N(CC(=O)O)C1Cc2ccccc2C1 — higher, 2.82
- COC(=O)[C@H]1[C@@H](OC(=O)c2ccccc2)C[C@@H]2CC[C@H]1N2C [COCAINE] — higher, 3.92
- COc1ccc2cc([C@H](C#N)OC(=O)[C@H]3[C@@H](C=C(Cl)Cl)C3(C)C)ccc2c1 — higher, 5.82
- COc1ccc2cc(C(C#N)OC(=O)C3C(C)(C)C3(C)C)ccc2c1 (centres undefined) — higher, 5.82
- CCOC(=O)[C@H](CCc1ccccc1)N[C@@H](C)C(=O)N1Cc2ccccc2C[C@H]1C(=O)O — higher, 3.87
- CCOC(=O)C1=C[C@@H](OC(CC)CC)[C@H](NC(C)=O)[C@@H](N)C1 [OSELTAMIVIR] — higher, 3.75
- CC(=O)O[C@H]1C=C[C@H]2[C@H]3Cc4ccc(O)c5c4[C@@]2(CCN3C)[C@H]1O5 — lower, 2.08
- CCCCCOC(=O)Nc1nc(=O)n([C@@H]2O[C@H](C)[C@@H](O)[C@H]2O)cc1F [CAPECITABINE] — higher, 2.89
- COc1ccc2cc([C@@H](C#N)OC(=O)[C@H]3[C@@H](C=C(Cl)Cl)C3(C)C)ccc2c1 — higher, 5.85
- COC(=O)[C@@H](c1ccccc1)[C@@H]1CCCCN1 — higher, 4.05
- N[C@@H](Cc1ccccc1)C(=O)OC[C@H]1O[C@@H](n2cc(F)c(=O)[nH]c2=O)C[C@@H]1O — higher, 3.34
- CC(=O)Oc1ccc([N+](=O)[O-])cc1 [4-NITROPHENYL ACETATE] — higher, 3.44
- COc1ccc2cc([C@H](C#N)OC(=O)[C@@H]3[C@H](C=C(Cl)Cl)C3(C)C)ccc2c1 — higher, 6.52
- CC1(C)[C@H](C=C(Cl)Cl)[C@H]1C(=O)OCc1cccc(Oc2ccccc2)c1 (stereo in doubt) — higher, 5.01
- COC(=O)[C@H](c1ccccc1)[C@H]1CCCCN1 [DEXMETHYLPHENIDATE] — higher, 4.36
- CC(C)[C@H](N)C(=O)OC[C@H]1O[C@@H](n2cc(F)c(=O)[nH]c2=O)C[C@@H]1O — within 0.2 log units, 2.45
- COc1ccc2cc([C@@H](C#N)OC(=O)[C@@H]3[C@@H](C=C(Cl)Cl)C3(C)C)ccc2c1 — higher, 6.15
- CCOC(=O)[C@H](CCc1ccccc1)N[C@H]1CCCN2CCC[C@@H](C(=O)O)N2C1=O [CILAZAPRIL] — higher, 2.89
- CC1(C)[C@H](C(=O)OCc2cccc(Oc3ccccc3)c2)[C@@H]1C=C(Cl)Cl — higher, 4.62
- CC1(C)[C@@H](C=C(Cl)Cl)[C@@H]1C(=O)OCc1cccc(Oc2ccccc2)c1 (stereo in doubt) — higher, 5.01
- CC(C)=C[C@H]1[C@H](C(=O)OCc2coc(Cc3ccccc3)c2)C1(C)C (relative stereo) — higher, 5.17
- COc1ccc2cc([C@@H](C#N)OC(=O)[C@H]3[C@H](C=C(Cl)Cl)C3(C)C)ccc2c1 — higher, 5.62

With COc1ccc(C(=O)N2CCCC2=O)cc1 the pKm was 4.07 and 4.02.
